From ChEMBL document CHEMBL5375990, “Optimization of Pharmacokinetic and In Vitro Safety Profile of a Series of Pyridine Diamide Indirect AMPK Activators” (J Med Chem, 2023)
The source made the active and inactive calls. No cut-off for these calls is given here.

What was measured:
[1] = Activation of AMPK in human HepG2 cells incubated for 2 hrs; assay type: cell-based; conditions: HepG2, 2 h
HepG2 = assay: Inhibition of mitochondrial function in human HepG2 cells assessed as reduction in ATP production; assay type: functional, cell-based
[2] = Clearance in rat; assay type: ADME; conditions: in vivo
[3] = Microsomal stability in human liver microsome assessed as half life; assay type: ADME, microsomes; conditions: for half-life: liver microsomes
Cytochrome P450 3A4 [4] = molecular target: T1, Cytochrome P450 3A4 (Homo sapiens, UniProt P08684); assay: Inhibition of CYP3A4 (unknown origin) in presence of NADPH; assay type: ADME
T1 sequence (P08684 whole entry): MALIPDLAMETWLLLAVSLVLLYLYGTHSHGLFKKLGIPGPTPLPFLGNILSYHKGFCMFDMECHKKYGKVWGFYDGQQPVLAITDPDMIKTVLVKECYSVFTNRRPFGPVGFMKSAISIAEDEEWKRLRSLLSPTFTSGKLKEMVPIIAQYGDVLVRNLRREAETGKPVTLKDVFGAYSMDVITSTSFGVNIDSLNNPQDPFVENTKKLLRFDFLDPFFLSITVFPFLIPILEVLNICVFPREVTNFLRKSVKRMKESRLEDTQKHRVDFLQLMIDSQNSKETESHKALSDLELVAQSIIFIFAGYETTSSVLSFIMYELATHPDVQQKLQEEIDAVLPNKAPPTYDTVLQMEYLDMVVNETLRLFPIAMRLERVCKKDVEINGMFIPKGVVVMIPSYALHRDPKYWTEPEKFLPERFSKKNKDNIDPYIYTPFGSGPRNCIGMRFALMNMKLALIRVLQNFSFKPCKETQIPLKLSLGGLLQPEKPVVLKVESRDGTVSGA

hERG (KCNH2) = hERG (KCNH2) (Homo sapiens, UniProt Q12809); assay: Inhibition of hERG at 10 uM relative to control; assay type: toxicity
hERG (KCNH2), sequence (Q12809 whole entry): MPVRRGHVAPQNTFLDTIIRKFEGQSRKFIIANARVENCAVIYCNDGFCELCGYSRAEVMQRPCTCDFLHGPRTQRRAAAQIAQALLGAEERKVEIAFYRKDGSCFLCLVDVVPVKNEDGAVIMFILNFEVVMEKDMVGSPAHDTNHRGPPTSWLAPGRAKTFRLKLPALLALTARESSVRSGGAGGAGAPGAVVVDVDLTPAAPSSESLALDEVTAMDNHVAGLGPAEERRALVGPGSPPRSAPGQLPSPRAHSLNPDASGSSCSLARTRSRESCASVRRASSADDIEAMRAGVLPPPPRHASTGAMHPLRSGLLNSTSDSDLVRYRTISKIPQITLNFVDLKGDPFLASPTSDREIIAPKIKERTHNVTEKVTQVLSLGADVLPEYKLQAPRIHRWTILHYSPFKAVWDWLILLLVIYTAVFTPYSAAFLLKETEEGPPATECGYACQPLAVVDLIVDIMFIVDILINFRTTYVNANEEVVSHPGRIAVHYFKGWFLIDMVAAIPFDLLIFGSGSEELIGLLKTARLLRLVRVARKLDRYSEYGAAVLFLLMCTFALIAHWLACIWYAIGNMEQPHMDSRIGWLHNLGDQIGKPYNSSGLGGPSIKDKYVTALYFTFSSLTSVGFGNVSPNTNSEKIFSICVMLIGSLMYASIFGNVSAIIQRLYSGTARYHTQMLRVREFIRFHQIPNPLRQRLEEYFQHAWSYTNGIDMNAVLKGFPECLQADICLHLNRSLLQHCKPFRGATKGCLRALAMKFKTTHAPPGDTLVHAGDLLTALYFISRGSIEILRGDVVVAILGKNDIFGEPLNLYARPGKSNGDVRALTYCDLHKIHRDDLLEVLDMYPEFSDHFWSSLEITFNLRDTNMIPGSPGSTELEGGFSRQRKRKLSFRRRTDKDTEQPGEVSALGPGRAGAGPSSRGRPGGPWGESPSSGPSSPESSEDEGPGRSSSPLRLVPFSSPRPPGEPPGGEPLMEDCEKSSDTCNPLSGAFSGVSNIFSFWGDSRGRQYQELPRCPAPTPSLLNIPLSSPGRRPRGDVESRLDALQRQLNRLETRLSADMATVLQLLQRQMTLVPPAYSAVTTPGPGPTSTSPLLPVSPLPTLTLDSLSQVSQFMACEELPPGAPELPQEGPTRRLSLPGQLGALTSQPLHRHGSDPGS

Cytochrome P450 3A4 [5] = molecular target: T1, Cytochrome P450 3A4; assay: Inhibition of CYP3A4 (unknown origin); assay type: ADME
[6] = Dissociation constant, pKa of compound; assay type: physicochemical
[7] = Microsomal stability in rat liver microsome assessed as half life; assay type: ADME; conditions: liver microsomes
[8] = molecular target: 5'-AMP-activated protein kinase; assay: Activation of AMPK in mouse C2C12 cells incubated for 2 hrs; assay type: cell-based
Mus musculus [9] = assay: Antidiabetic activity against po dosed db/db mouse model of type 2 diabetes assessed as improvement in glucose handling administered for 15 days and measured on day 13 by OGTT test; assay type: functional, organism-based; conditions: dose 10-15 mg/kg, time 13.0 day
[10] = AUC in rat at 5 mg/kg, po measured upto 10 hrs; assay type: ADME, organism-based; parameters: time < 10 hrs, dose 5 mg/kg, route po; conditions: in vivo
Mus musculus [11] = assay: In vivo activation of AMPK in C57BL/6J mouse assessed as increase in AMPK phosphorylation in liver at 10 mg/kg, po measured for 30 mins by Western blot analysis; assay type: functional, organism-based
[12] = Drug concentration in C57BL/6J mouse plasma at 10 mg/kg, po measured at 30 mins; assay type: ADME, organism-based
[13] = Oral bioavailability in rat at 5 mg/kg measured upto 10 hrs; assay type: ADME, organism-based; conditions: in vivo
[14] = Volume of distribution at steady state in rat at 5 mg/kg, po or 1 mg/kg, iv measured upto 10 hrs; assay type: ADME, organism-based; conditions: in vivo
Mus musculus [15] = assay: Antidiabetic activity against po dosed db/db mouse model of type 2 diabetes assessed as reduction in insulin level administered for 15 days by OGTT test; assay type: functional, organism-based; conditions: dose 10-15 mg/kg, time 15.0 day
Mus musculus [16] = assay: In vivo activation of AMPK in C57BL/6J mouse assessed as increase ACC substrate level in liver at 10 mg/kg, po measured for 30 mins by Western blot analysis; assay type: functional, organism-based
A549 = assay: Cytotoxicity against human A549 cells assessed as reduction in cell growth; assay type: functional, cell-based
Mus musculus [17] = assay: Antidiabetic activity against db/db mouse model of type 2 diabetes assessed as reduction in blood glucose AUC at 15 mg/kg, po administered for 15 days and measured on day 13 by OGTT test; assay type: functional, organism-based; conditions: time 13.0 day
[18] = Half life in rat at 5 mg/kg, po or 1 mg/kg, iv measured upto 10 hrs; assay type: ADME, organism-based; conditions: in vivo
NCI-H1299 = assay: Cytotoxicity against human NCI-H1299 cells assessed as reduction in cell growth; assay type: functional, cell-based
Mus musculus [19] = assay: Antidiabetic activity against po dosed db/db mouse model of type 2 diabetes assessed as reduction in blood glucose level administered for 15 days by OGTT test; assay type: functional, organism-based; conditions: dose 10-15 mg/kg, time 15.0 day
[20] = molecular target: Voltage-gated inwardly rectifying potassium channel KCNH2 (Homo sapiens, UniProt Q12809); assay: Inhibition of hERG; assay type: toxicity
Voltage-gated inwardly rectifying potassium channel KCNH2, sequence (Q12809 whole entry): as above

Compound | EC50 [1] | IC50 (HepG2) | clearance [2] | half-life [3] | IC50 (Cytochrome P450 3A4 [4]) | inhibition at 10 µM (hERG (KCNH2)) | IC50 (Cytochrome P450 3A4 [5]) | half-life [7] | EC50 [8] | also measured
COc1ccc(C(=O)C2CCN(C(=O)c3ccc(C(=O)N[C@H]4CCN(Cc5ccc(C#N)cc5)[C@H](C(F)(F)F)C4)cn3)CC2)cc1 | 464 nM | – | – | – | – | – | – | – | – | –
COc1ccc(C(=O)C2CCN(C(=O)c3ccc(C(=O)N(C)C4CCN(Cc5ccc(C#N)cc5)CC4)cn3)CC2)cc1 | 21 nM | 28 nM | 74 mL/min/kg | – | – | – | – | – | – | –
COc1ccc(C(=O)C2CCN(C(=O)c3ccc(C(=O)N[C@@H]4CCN(Cc5ccc(C#N)cc5)C[C@@H]4F)cn3)CC2)cc1 | 47 nM | 800 nM | 33 mL/min/kg | 8.23 h | > 10000 nM | 67.4% | > 10000 nM | 4.95 h | 193 nM | pKa [6]: 4.9
COc1ccc(C(=O)C2CCN(C(=O)c3ccc(C(=O)N[C@H]4CCN(Cc5ccc(C#N)cc5)C[C@@H]4C)cn3)CC2)cc1 | 65 nM | 983 nM | 145 mL/min/kg | – | – | – | – | – | 236 nM | –
COc1ccc(C(=O)C2CCN(C(=O)c3cc(F)c(C(=O)NC4CCN(Cc5ccc(C#N)cc5)CC4)cn3)CC2)cc1 | 1 nM | 31 nM | – | – | – | – | – | – | 9 nM | –
COc1ccc(C(=O)C2CCN(C(=O)c3cc(C(F)(F)F)c(C(=O)NC4CCN(Cc5ccc(C#N)cc5)CC4)cn3)CC2)cc1 | 10 nM | 456 nM | 35 mL/min/kg | 1.48 h | 2800 nM | – | > 10000 nM | 0.733 h | 28 nM | –
COCCN(C(=O)c1ccc(C(=O)N2CCC(C(=O)c3ccc(OC)cc3)CC2)nc1)C1CCN(Cc2ccc(C#N)cc2)CC1 | 78 nM | 1470 nM | – | – | – | 26.5% | – | – | 654 nM | –
COc1ccc(C(=O)C2CCN(C(=O)c3ccc(C(=O)N[C@@H]4CCN(Cc5ccc(C#N)cc5)C[C@@H]4C(F)(F)F)cn3)CC2)cc1 | 17 nM | 466 nM | 62 mL/min/kg | – | – | – | – | – | 143 nM | –
COc1ccc(C(=O)C2CCN(C(=O)c3ccc(C(=O)N[C@@H]4CCN(Cc5ccc(C#N)cc5)C[C@@H]4C)cn3)CC2)cc1 | 22 nM | 941 nM | – | 0.383 h | 900 nM | 46.9% | 10000 nM | 0.15 h | 82 nM | –
COc1ccc(C(=O)C2CCN(C(=O)c3ccc(C(=O)NC4CCN(Cc5ccc(C#N)cc5)CC4(F)F)cn3)CC2)cc1 (centres undefined) | 28 nM | 256 nM | – | 1.23 h | > 10000 nM | 65% | > 10000 nM | 2.48 h | 50 nM | pKa [6]: 2.5
COc1ccc(C(=O)C2CCN(C(=O)c3ccc(C(=O)NC4CCN(Cc5ccc(C#N)cc5)CC4(C)C)cn3)CC2)cc1 (centres undefined) | 32 nM | 390 nM | 40 mL/min/kg | – | – | – | – | – | 598 nM | –
COc1ccc(C(=O)C2CCN(C(=O)c3ccc(C(=O)N[C@H]4CCN(Cc5ccc(C#N)cc5)C[C@@H]4F)cn3)CC2)cc1 (relative stereo) | 62 nM | 1170 nM | 17 mL/min/kg | 1.9 h | > 10000 nM | 69.2% | > 10000 nM | 1.47 h | 161 nM | Activity (Mus musculus [9]): Dose-Dependent Effect; AUC at 10 h [10]: 2350 ng·h/mL; Activity (Mus musculus [11]): Active; concentration at 0.5 h [12]: 638 ng/mL; bioavailability [13]: 55%; Vdss [14]: 2.2 L/kg; Activity (Mus musculus [15]): Dose-Dependent Effect; Activity (Mus musculus [16]): Active; IC50 (A549): > 20000 nM; Activity (Mus musculus [17]): Active; half-life [18]: 3.1 h; IC50 (NCI-H1299): > 20000 nM; pKa [6]: 4.9; Activity (Mus musculus [19]): Dose-Dependent Effect
COc1ccc(C(=O)C2CCN(C(=O)c3ccc(C(=O)NC4CCN(Cc5ccc(C#N)cc5)CC4)cn3)CC2)cc1 | 31 nM | 2820 nM | 150 mL/min/kg | – | > 10000 nM | – | > 10000 nM | – | 137 nM | pKa [6]: 7.4; IC50 [20]: 4700 nM
COc1ccc(C(=O)C2CCN(C(=O)c3cc(C)c(C(=O)NC4CCN(Cc5ccc(C#N)cc5)CC4)cn3)CC2)cc1 | 22 nM | 1460 nM | 38 mL/min/kg | 1.72 h | > 10000 nM | 59.8% | > 10000 nM | 0.7 h | 110 nM | –
COc1ccc(CN2CCC(NC(=O)c3cnc(C(=O)N4CCC(C(=O)c5ccc(OC)cc5)CC4)cc3C)CC2)cc1 | 25 nM | 3370 nM | 40 mL/min/kg | 4.72 h | – | 62.5% | – | 0.917 h | 84 nM | –
N#Cc1ccc(CN2CC[C@H](NC(=O)c3ccc(C(=O)N4CCC(C(=O)c5ccc(N6CCOCC6)cc5)CC4)nc3)[C@@H](F)C2)cc1 | 70 nM | 2690 nM | – | 2.63 h | – | – | – | 1.22 h | 217 nM | –
COc1ccc(C(=O)C2CCN(C(=O)c3cc(C)c(C(=O)NC4CCN(Cc5ccc(OC)c(F)c5)CC4)cn3)CC2)cc1 | 14 nM | 976 nM | 33 mL/min/kg | 1.12 h | – | 58.4% | – | 0.9 h | 27 nM | –
N#Cc1ccc(CN2CC[C@H](NC(=O)c3ccc(C(=O)N4CCC(C(=O)c5ccc(-n6cccn6)cc5)CC4)nc3)[C@@H](F)C2)cc1 | 29 nM | 887 nM | 19 mL/min/kg | – | – | 98.4% | – | 1.75 h | 87 nM | Stability ([3]; microsomes): Stable
